Activity calls are given as the source filed them.
Tests used:
Cytochrome P450 3A4 [1] = target: T1, Cytochrome P450 3A4 (Homo sapiens, UniProt P08684)
[2] = system: Streptococcus sp. 'group A'; experiment: Streptococcus pyogenes SK(-)GAS viability under kanamycin – luminescence, BacTiterGlo, confirmation, counter-screen for streptokinase expression inhibitor project, dose response (AID 1900); type: functional, organism-based
Streptococcus = experiment: GAS UMAA2166 growth inhibition – luminescence, BacTiterGlo, counter-screen for streptokinase expression inhibitor project, dose response (AID 1915); type: functional, organism-based;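 further: potency for reduction of bacterial viability or growth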
[3] = target: Disintegrin and metalloproteinase domain-containing protein 17 (Homo sapiens, UniProt P78536); experiment: inhibition of ADAM17 substrate cleavage – biochemical, quenched FRET substrate, counter-screen for ADAM10 exosite inhibitor project, dose response (AID 743253)
Disintegrin and metalloproteinase domain-containing protein 17, sequence (P78536 whole entry, the tested form may be a part): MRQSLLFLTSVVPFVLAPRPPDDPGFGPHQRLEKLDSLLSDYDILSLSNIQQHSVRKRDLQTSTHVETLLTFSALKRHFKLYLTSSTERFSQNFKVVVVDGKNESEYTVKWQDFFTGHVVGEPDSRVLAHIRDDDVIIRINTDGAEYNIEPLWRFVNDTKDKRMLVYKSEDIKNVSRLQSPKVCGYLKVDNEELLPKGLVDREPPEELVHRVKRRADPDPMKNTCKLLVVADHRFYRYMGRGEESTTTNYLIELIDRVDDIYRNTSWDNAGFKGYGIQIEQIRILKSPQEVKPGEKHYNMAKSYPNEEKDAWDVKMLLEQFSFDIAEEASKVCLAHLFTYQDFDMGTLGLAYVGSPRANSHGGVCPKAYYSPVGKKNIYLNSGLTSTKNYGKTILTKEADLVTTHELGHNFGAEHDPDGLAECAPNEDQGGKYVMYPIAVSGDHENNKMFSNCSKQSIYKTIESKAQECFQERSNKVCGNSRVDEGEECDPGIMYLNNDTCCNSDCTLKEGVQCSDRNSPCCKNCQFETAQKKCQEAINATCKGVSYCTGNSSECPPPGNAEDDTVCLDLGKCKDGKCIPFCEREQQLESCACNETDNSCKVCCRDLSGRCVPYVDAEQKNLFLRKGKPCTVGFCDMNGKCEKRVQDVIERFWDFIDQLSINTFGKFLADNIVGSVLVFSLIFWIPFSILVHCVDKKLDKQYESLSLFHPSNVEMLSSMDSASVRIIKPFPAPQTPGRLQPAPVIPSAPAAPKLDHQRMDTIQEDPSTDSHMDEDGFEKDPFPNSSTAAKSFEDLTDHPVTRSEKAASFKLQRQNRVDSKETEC

Streptokinase A = target: T2, Streptokinase A (Streptococcus pyogenes serotype M1, UniProt P10520); experiment: viability-normalized secreted streptokinase activity reduction – plasminogen activation absorbance, OD405, dose response (AID 1914); type: functional, Streptococcus pyogenes M1 GAS;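 further: secreted streptokinase activity via plasminogen activation per viability signal from cell pellet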
T2 sequence (P10520 whole entry): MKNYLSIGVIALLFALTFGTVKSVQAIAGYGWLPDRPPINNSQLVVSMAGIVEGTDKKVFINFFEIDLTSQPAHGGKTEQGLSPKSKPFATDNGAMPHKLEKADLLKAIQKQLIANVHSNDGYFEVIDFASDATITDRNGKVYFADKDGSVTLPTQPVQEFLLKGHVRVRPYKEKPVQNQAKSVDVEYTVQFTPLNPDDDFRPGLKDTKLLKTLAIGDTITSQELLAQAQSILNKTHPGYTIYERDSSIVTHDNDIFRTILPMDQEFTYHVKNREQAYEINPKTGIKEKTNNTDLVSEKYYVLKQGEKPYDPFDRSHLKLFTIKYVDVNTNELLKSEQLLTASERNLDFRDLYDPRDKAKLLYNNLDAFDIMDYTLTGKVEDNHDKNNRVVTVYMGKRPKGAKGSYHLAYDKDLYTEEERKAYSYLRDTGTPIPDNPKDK

[4] = target: T3, Short transient receptor potential channel 4 (Mus musculus, UniProt Q9QUQ5); experiment: block of DAMGO-driven TRPC4 calcium entry – cell-based, HEK293 TRPC4/mu-opioid, Fluo-4 calcium, dose response (AID 434942); type: functional;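 further: potency of inhibitors blocking the TRPC4 calcium response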
T3 sequence (Q9QUQ5 whole entry): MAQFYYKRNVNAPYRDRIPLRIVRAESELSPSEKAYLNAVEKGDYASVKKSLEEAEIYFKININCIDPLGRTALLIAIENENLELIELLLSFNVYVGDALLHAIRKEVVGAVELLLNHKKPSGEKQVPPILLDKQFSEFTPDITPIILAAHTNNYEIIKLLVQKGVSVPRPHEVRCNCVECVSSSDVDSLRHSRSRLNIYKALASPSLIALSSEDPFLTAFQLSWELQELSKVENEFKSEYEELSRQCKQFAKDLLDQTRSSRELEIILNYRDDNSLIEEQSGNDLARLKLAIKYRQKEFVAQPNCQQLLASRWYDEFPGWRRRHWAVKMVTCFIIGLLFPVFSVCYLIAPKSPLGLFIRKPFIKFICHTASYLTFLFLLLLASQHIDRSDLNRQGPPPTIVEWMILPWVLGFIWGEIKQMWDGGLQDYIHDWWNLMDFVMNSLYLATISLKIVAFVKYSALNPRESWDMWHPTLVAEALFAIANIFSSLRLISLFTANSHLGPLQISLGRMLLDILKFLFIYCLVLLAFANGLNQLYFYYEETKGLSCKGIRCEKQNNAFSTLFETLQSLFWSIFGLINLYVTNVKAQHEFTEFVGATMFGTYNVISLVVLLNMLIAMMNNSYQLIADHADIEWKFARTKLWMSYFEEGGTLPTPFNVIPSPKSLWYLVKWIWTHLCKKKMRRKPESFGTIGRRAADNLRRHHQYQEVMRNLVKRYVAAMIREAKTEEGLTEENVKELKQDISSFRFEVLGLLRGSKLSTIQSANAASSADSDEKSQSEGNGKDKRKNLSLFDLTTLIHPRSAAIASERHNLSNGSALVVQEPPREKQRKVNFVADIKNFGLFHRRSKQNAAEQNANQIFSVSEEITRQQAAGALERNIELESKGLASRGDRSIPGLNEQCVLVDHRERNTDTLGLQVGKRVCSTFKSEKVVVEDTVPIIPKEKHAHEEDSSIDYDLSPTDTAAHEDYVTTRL

cells [5] = type: functional, cell-based
[6] = target: T4, Calpain-2 catalytic subunit (Sus scrofa, UniProt P43367); experiment: m-calpain protease blockers, concentration series – biochemical, fluorogenic peptide substrate, dose response (AID 1420); type: functional
T4 sequence (P43367 whole entry): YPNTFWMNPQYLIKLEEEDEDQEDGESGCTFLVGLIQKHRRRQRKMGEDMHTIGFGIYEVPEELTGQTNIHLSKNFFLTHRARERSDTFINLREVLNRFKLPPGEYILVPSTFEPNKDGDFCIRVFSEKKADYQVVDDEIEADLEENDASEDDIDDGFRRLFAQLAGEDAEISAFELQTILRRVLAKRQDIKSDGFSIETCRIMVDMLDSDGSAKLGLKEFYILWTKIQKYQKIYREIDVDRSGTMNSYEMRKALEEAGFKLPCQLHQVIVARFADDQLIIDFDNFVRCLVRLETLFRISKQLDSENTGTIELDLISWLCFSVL

cells [7] = type: functional, cell-based; remark: listed apart in the source
Cytochrome P450 3A4 [8] = target: T1, Cytochrome P450 3A4; details: Potency
H9c2 = experiment: cells; type: functional, cell-based; details: Rattus norvegicus, H9c2, Myocardium;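 further: confirmatory concentration-response retest of ultra-high-throughput screening hits for modulation of myocardial damage; cell death induced by hydrogen peroxide oxidative stress; compound pretreatment for 60 min then peroxide exposure for 2 h; potency is for protecting the cells against peroxide damage rather than for killing them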
[9] = viability of uninfected HEp-2 cells – cell-based, HTS, cytotoxicity control for RSV inhibitor project, dose response (AID 2410); type: functional; details: human respiratory syncytial virus
[10] = target: Induced myeloid leukemia cell differentiation protein Mcl-1 (Homo sapiens, UniProt Q07820); type: functional
Induced myeloid leukemia cell differentiation protein Mcl-1, sequence (Q07820 whole entry): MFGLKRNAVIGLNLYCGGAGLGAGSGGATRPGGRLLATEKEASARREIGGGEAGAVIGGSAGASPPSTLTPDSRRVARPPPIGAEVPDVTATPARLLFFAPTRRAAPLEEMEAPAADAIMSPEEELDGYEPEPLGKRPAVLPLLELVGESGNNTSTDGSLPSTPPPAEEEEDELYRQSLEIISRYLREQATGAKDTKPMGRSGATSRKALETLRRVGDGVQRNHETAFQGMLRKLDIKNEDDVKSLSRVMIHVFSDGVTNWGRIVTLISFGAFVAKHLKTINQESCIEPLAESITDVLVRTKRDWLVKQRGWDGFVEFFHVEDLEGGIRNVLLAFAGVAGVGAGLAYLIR

Cytochrome P450 2D6 = Cytochrome P450 2D6 (Homo sapiens, UniProt P10635);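 further: CYP2D6 member of a cytochrome P450 panel assay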
Cytochrome P450 3A4 [11] = target: T1, Cytochrome P450 3A4; remark: listed apart in the source
[12] = Luminescence Cell-Based Dose Retest to Confirm Inhibitors of Cancer Stem Cells. [Related pubchem assays (depositor defined):AID2717, AID2721]; type: functional; details: Homo sapiens
[13] = target: T5, Voltage-gated N-type calcium channel alpha-1B subunit/Amyloid beta A4 precursor protein-binding family A member 1 (Homo sapiens, UniProt Q00975+Q02410); type: protein assay
T5 sequence (Q00975 whole entry): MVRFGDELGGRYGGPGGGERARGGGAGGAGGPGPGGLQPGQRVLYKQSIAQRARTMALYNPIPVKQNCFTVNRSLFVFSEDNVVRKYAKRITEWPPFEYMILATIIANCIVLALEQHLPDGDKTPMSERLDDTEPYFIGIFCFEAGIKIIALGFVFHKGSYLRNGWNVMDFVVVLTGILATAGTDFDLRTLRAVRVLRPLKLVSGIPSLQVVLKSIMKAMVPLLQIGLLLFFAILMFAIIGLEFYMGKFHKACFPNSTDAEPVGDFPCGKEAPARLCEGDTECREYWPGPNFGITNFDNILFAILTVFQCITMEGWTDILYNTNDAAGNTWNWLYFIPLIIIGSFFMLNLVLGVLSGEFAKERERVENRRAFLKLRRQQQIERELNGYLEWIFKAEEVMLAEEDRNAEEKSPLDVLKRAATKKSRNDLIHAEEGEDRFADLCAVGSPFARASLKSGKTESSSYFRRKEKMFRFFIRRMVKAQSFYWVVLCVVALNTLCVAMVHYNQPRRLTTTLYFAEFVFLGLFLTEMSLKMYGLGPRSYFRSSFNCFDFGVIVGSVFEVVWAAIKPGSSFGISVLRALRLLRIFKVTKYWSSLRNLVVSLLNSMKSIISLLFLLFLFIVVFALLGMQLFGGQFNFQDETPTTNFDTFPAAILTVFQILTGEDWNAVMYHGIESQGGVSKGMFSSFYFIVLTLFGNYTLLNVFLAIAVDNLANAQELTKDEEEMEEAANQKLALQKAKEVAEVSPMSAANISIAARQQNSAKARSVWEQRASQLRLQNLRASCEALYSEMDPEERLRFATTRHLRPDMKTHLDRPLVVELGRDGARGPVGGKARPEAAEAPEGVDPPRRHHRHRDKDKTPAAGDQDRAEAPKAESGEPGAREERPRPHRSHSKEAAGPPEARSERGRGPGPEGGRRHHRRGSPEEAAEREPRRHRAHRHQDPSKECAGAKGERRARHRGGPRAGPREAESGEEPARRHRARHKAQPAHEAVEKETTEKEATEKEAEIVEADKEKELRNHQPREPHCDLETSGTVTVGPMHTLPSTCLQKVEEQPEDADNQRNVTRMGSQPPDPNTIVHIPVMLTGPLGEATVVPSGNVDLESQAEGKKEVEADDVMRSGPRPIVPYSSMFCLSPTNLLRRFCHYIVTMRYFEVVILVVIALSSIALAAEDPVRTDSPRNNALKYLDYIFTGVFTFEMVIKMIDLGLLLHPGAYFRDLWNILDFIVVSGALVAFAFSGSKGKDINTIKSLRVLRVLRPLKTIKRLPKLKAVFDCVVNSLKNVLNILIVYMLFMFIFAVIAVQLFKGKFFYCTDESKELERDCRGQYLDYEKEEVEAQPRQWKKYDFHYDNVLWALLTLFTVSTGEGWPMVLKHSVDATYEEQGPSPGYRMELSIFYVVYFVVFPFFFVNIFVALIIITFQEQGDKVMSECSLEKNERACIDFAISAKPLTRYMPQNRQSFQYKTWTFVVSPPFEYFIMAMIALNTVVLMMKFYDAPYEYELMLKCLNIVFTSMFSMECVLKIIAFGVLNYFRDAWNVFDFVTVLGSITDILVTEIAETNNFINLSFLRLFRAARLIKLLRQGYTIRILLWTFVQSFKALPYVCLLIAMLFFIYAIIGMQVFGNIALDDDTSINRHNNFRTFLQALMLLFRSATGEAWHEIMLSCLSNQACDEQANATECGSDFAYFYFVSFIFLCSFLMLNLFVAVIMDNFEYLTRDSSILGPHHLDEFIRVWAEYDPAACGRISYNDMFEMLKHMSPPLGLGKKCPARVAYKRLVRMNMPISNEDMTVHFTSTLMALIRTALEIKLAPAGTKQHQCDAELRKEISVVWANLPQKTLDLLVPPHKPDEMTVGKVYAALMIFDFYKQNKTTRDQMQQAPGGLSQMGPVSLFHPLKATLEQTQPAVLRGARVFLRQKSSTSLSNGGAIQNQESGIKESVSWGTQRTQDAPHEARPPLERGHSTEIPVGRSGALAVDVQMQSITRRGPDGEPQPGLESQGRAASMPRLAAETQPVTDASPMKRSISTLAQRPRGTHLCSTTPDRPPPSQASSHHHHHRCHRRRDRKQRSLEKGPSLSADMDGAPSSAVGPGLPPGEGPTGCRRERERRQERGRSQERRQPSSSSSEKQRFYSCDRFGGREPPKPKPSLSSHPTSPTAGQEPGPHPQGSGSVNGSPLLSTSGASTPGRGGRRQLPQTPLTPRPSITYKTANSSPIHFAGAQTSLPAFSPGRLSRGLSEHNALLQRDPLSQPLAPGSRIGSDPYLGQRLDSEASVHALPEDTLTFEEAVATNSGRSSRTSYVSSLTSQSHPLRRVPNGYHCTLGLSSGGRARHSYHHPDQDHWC
T5 sequence (Q02410 whole entry): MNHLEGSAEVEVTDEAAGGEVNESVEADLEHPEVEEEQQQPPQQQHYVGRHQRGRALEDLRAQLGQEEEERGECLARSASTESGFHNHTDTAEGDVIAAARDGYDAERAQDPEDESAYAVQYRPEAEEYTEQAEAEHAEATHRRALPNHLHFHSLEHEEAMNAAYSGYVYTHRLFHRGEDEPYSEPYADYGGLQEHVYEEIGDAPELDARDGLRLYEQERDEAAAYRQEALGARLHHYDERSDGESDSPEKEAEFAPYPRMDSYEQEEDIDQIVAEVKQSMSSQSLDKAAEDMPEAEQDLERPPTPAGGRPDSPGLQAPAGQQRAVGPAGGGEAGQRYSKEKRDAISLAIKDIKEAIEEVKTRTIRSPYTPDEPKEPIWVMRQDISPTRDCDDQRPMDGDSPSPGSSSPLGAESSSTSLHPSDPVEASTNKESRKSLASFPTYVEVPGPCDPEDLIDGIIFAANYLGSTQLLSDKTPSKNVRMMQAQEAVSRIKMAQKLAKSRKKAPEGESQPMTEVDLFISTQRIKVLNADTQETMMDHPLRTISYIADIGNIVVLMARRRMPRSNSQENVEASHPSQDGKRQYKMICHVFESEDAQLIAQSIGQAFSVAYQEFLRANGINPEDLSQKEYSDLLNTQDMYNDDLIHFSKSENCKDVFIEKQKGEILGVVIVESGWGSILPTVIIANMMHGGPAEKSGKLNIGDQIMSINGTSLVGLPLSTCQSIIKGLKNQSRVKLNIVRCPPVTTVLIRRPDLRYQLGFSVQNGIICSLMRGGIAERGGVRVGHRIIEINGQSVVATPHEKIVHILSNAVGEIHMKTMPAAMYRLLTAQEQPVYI

Caspase-6 = target: T6, Caspase-6 (Homo sapiens, UniProt P55212); experiment: inhibition of CASP6 peptide cleavage – biochemical, VEID-R110 fluorescence, cherry-pick, dose response (AID 720632)
T6 sequence (P55212 whole entry): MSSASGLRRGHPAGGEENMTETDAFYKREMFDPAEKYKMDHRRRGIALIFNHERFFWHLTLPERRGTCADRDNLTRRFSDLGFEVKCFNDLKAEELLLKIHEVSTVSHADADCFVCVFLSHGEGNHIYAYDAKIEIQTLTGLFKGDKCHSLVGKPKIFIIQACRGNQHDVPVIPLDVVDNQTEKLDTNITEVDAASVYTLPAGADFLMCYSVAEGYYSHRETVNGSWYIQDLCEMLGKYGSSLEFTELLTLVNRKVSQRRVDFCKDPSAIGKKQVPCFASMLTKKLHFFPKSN

[14] = target: T5, Voltage-gated N-type calcium channel alpha-1B subunit/Amyloid beta A4 precursor protein-binding family A member 1; type: protein assay; remark: listed apart in the source
Large T antigen = Large T antigen (Simian virus 40, UniProt P03070); type: functional, Betapolyomavirus macacae;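 further: Confirmatory-stage PubChem screen for compounds that inhibit SV40 T antigen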
[15] = blockers of HIV-1 envelope-mediated cell-cell fusion – cherry-pick, dose response (AID 652057); type: functional, cell-based
[16] = blockers of HIV-1 ZM109 envelope-driven cell-cell fusion – HeLa effector, CEM target cells, luciferase, cherry-pick, dose response (AID 652058); type: functional, cell-based;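 further: luciferase signal from HIV-1 Env mediated cell-cell fusion of effector and target cells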
[17] = HIV-1 AD8 envelope cell-cell fusion blockers – cherry-pick, dose response (AID 652062); type: functional, cell-based;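 further: luciferase signal from cell-cell fusion driven by HIV-1 clade B AD8 Env; potency is for inhibitors of fusion seen as a drop in luminescence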
[18] = off-target signal loss in HeLa-CEM21 co-culture – HeLa F-luc CTL cells, cherry-picked, counter-screen for HIV-1 Env fusion inhibitor project, dose response (AID 652040); type: functional, cell-based;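 further: potency for signal decrease marking cytotoxic or nonspecific inhibition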
Cytochrome P450 2C9 = Cytochrome P450 2C9 (Homo sapiens, UniProt P11712)

T1 sequence (P08684 whole entry): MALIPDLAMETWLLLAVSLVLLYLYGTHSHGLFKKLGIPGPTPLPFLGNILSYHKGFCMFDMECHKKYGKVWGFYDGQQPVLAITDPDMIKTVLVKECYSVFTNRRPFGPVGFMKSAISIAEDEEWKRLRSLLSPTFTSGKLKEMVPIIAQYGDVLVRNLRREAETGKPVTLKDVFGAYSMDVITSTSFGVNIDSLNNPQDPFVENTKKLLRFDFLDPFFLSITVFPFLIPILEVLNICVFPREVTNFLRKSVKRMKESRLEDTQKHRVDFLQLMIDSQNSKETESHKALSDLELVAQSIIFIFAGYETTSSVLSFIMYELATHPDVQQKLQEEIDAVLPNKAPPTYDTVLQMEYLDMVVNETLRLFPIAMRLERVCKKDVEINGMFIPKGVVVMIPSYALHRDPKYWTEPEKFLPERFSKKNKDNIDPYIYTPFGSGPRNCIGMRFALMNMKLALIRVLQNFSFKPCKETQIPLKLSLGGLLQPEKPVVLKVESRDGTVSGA

Cn1c(=O)c(-c2ccc(Cl)cc2)nc2cnc(Oc3ccccc3)nc21
AC50 (Cytochrome P450 3A4 [1]): inconclusive

O=C(OCc1csc(Nc2ccccc2)n1)c1ccc(Cl)cc1
EC50 [2]: 12.8 µM (active) | EC50 (Streptococcus): > 150 µM (not active) | IC50 [3]: > 69.5 µM (inactive) | EC50 (Streptokinase A): 34.2 µM (active)

Cc1cc(N2CCCCCC2)nc2ccccc12
EC50 [4]: 1.33 µM (active)

O=C(c1ccc(-c2nnc(-c3ccccc3)o2)cc1)N1CCCCCC1
EC50 (cells [5]): > 350 µM (not active) | IC50 [6]: 11 µM (not active) | EC50 (cells [7]): 5.78 µM (active)

CC(=O)N1CC=CC1(C)C(=O)O (stereo not drawn)
AC50 (Cytochrome P450 3A4 [8]): 20 µM (inconclusive)

O=C1OCCN1C(=O)[C@H]1[C@H](c2ccc([N+](=O)[O-])cc2)C(c2cccc(Cl)c2)=NN1c1ccc(Br)cc1
IC50 (H9c2): > 79 µM (inactive) | IC50 [3]: > 69.5 µM (inactive)

Cn1cc(CNCC2CCCO2)c(-c2ccc(Oc3ccccc3)cc2)n1 (stereo not drawn)
EC50 [4]: 3.35 µM (active)

CCOC(=O)c1c(N)sc(C(O)(C(F)(F)F)C(F)(F)F)c1-c1ccc(Cl)cc1
IC50 [6]: 13.3 µM (not active) | EC50 [2]: 1.96 µM (active) | EC50 (Streptococcus): 10.1 µM (active) | EC50 (Streptokinase A): 6.86 µM (active) | CC50 [9]: 11.4 µM (active)

COc1c(CC(=O)c2cc3c(cc2O)OC(C)(C)C(O)C3)ccc2c1C=CC(C)(C)O2 (stereo not drawn) [DIHYDROMUNDULETONE]
AC50 (Cytochrome P450 3A4 [8]): 25.1 µM (inconclusive)

Oc1c(Cl)cc(Cl)cc1/C=C/c1ccc2cccc(O)c2n1
IC50 [10]: 6.97 µM (not active)

Cc1ccc2c(c1)nnn2C1CCN(S(=O)(=O)c2ccc(C(=O)N3CC(C)CC(C)C3)cc2)CC1 (stereo not drawn)
IC50 [6]: 3.74 µM (not active)

Oc1c(Br)cc(/C=N/c2ccc3[nH]c(-c4ccccc4)nc3c2)c(O)c1Br
IC50 [10]: 1.49 µM (active)

CC(C)CCC(CCN1CCCC1)c1ccc2c(c1)OCO2 (stereo not drawn)
IC50 [10]: 6.38 µM (not active)

CCCCNC(=O)C(c1ccc(OCC(=O)OC)c(C(=O)OC)c1)N(CCOC)C(=O)CCCCCN1C(=O)NC(c2ccc(-c3ccccc3)cc2)C(C(=O)OCc2ccccc2)=C1C (stereo not drawn)
AC50 (Cytochrome P450 3A4 [8]): 3.16 µM (inconclusive)

CCCCc1nc(SCCOC)c2c(=O)n(C)c(=O)n(C)c2n1
EC50 [4]: 1.5 µM (active)

C=CCn1cnc2scc(-c3ccc(CC)cc3)c2c1=O
EC50 [4]: 5.96 µM (active)

N#Cc1c(N2CCCCC2)nc(N)c2c(N)nc3c(c12)CC(c1ccccc1)O3 (stereo not drawn)
AC50 (Cytochrome P450 2D6): 25.1 µM (inconclusive) | EC50 [4]: 2.99 µM (active) | AC50 (Cytochrome P450 3A4 [11]): 1 µM (inconclusive)

Cc1ccc(NC2=NCC(Cc3ccc(Br)cc3)S2)cc1 (stereo not drawn)
IC50 [6]: 5.89 µM (not active) | EC50 [2]: 6.42 µM (active) | AC50 [12]: 6.43 µM (active) | EC50 (Streptococcus): 10.4 µM (active) | EC50 (Streptokinase A): > 150 µM (not active)

O=C(CCCCn1c(=O)c2ccccc2n(CC(=O)NC2CCCC2)c1=O)NCc1ccco1
IC50 [6]: 28.8 µM (not active)

CCC1=C2CC[C@H]3C(=O)NC(=O)[C@H]3[C@H]2[C@@]2(Cc3ccccc3)/C(=N/CC(=O)OC)OC(=O)N2C1=O
AC50 (Cytochrome P450 3A4 [8]): 15.8 µM (inconclusive)

O=C(CSc1nnnn1-c1ccc2c(c1)OCCO2)OC1CCCCC1
IC50 [6]: 10.3 µM (not active)

COc1cccc(N2C(=O)NC(=O)/C(=C\c3ccc([N+](=O)[O-])s3)C2=O)c1
IC50 [13]: 6.66 µM (active) | AC50 (Caspase-6): 43 µM (active) | IC50 [14]: 13.5 µM (active) | IC50 (Large T antigen): 32.4 µM (active)

Cc1cccn2c(=O)c(/C=N/O)c(Nc3ccccc3F)nc12
IC50 [13]: > 50 µM (inactive) | IC50 [14]: 11.4 µM (active)

COc1ccc(N2C(=O)N3[C@H](c4ccc(Cl)cc4)[C@@H]4C(=O)N(C5CCCCC5)C(=O)[C@@H]4[C@]3(C)C2=O)cc1
AC50 [15]: 2.73 µM (active) | AC50 [16]: 3.16 µM (active) | AC50 [17]: 5.1 µM (active) | AC50 [18]: 3.54 µM (active)

CCOC(=O)c1sc(=S)n(-c2cccc(C(F)(F)F)c2)c1SC
AC50 (Cytochrome P450 2C9): 1.58 µM (inconclusive) | AC50 (Cytochrome P450 3A4 [1]): inconclusive

Cc1cc(C)n2nc(NCc3cccc(Br)c3)nc2n1
AC50 [15]: 7.45 µM (active) | AC50 [16]: 7.3 µM (active) | AC50 [17]: 2.92 µM (active) | AC50 [18]: 7.14 µM (active)

— ChEMBL document CHEMBL1201862, “PubChem BioAssay data set” (2004)
